In patent publication US20120178815A1, “Compositions of (-)-E-10-OH-NT and Methods for Their Synthesis and Use” (Adolor Corporation, priority 2007, published 2012):
Values joined by “and” are separate entries in the source; they are usually repeats but may differ in a detail not shown here. Equal values may be shown once. “Also recorded” adds a separate entry of the source.

What was measured:
[1] = target: T1, human muscarinic receptor M2 (Homo sapiens, UniProt P08172); experiment: Muscarinic M2 receptor binding, [3H]AF-DX384; conditions: read-out: Affinity for Muscarinic Receptors, M2, Ki
T1 construct: expressed in transfected cells; host or cells: CHO cells (membranes)
T1 sequence (P08172 1-466): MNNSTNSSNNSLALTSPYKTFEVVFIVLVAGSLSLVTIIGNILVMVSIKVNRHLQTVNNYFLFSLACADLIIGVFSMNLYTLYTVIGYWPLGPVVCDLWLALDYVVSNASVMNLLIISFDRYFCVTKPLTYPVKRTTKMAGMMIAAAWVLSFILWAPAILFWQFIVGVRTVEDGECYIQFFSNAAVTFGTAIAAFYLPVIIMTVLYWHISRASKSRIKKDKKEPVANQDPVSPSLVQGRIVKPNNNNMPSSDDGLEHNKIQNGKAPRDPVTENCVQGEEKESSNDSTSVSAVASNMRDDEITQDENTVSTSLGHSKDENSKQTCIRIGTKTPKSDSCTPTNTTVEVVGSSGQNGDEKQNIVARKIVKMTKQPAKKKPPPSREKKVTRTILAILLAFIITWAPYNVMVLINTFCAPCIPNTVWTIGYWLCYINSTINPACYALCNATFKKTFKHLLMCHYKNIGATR
Procedure: (§1) Protocol. […] Bound radioactivity was determined by scintillation spectroscopy. Non-specific binding was defined as the amount of bound radioligand in the presence of 1.0 μM atropine. Radioligand for the M1 receptor was [^3H]pirenzepine (2 nM). Radioligand for the M2 receptor was [^3H]AF-DX384 (2 nM). Radioligand for the M3, M4, and M5 receptors was [^3H]4-DAMP.

[2] = target: T2, human muscarinic receptor M5 (Homo sapiens, UniProt P08912); experiment: Muscarinic M5 receptor binding, [3H]4-DAMP; conditions: read-out: Affinity for Muscarinic Receptors, M5, Ki
T2 construct: expressed in transfected cells; host or cells: CHO cells (membranes)
T2 sequence (P08912 1-532): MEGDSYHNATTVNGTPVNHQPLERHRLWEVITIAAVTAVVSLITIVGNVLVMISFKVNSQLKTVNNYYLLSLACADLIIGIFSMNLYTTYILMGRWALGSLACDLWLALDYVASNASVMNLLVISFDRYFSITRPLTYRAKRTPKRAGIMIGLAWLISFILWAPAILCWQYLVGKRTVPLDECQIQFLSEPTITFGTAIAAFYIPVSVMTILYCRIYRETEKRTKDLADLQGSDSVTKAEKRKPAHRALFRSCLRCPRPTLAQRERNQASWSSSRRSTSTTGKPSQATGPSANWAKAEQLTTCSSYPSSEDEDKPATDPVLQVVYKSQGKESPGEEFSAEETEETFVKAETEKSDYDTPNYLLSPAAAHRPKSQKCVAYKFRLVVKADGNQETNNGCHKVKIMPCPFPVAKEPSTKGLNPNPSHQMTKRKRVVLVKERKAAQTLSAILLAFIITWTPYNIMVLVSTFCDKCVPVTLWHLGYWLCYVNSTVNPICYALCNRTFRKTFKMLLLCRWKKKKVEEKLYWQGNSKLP
Procedure: Protocol. The affinities of AT, NT (+)-E-10-OH-NT and (−)-E-10-OH-NT for muscarinic receptors M1, M2, M3, M4 and M5 were determined with membranes prepared from CHO cells heterologously expressing the cloned human muscarinic receptors M1, M2, M3, M4 and M5. For the assays, membranes and radiolabelled ligand were incubated with various concentrations of test compounds for 1 hour at 22° C. Bound radioactivity was determined by scintillation spectroscopy. Non-specific binding was defined as the amount of bound radioligand in the presence of 1.0 μM atropine. Radioligand for the M1 receptor was [^3H]pirenzepine (2 nM). Radioligand for the M2 receptor was [^3H]AF-DX384 (2 nM). Radioligand for the M3, M4, and M5 receptors was [^3H]4-DAMP.

CYP2C19 = target: T3, CYP2C19 (Homo sapiens, UniProt P33261); experiment: CYP2C19 inhibition, DBF substrate; format: in vitro ADME; conditions: average of six replicate experiments; for inhibition at 10 µM: human, microsomes containing human recombinant CYP2C19, probe dibenzylfluorescein (DBF), 10 μM test compound, read-out: Inhibition of CYPD2C19, % inhib. at 10 μM; for IC50: 95% confidence limits in parentheses, read-out: Inhibition of CYPD2C19, IC50
T3 construct: purchased BD Biosciences (San Jose, Calif.)
T3 sequence (P33261 whole entry): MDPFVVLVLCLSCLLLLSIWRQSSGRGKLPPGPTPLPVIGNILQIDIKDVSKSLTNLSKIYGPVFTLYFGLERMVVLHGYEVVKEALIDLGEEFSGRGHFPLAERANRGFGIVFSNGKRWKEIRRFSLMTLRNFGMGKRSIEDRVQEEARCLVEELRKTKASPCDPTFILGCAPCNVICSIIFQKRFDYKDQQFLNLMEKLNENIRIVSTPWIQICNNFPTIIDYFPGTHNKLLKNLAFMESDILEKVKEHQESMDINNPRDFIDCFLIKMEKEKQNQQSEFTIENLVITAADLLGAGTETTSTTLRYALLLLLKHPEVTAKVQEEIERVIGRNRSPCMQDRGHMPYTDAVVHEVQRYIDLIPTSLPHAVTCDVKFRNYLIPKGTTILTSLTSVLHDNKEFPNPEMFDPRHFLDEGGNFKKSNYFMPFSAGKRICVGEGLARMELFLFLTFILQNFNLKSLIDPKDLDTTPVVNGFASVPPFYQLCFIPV
Procedure: CYP2C19 activity was measured using dibezylflourescein (DBF) as substrate. The source of enzyme was microsomes containing human recombinant CYP2C19 obtained from BD Biosciences (San Jose, Calif.). Conversion of DBF to fluorescein was measured using a PerkinElmer Fusion with a 485 nm excitation filter and a 535 nm emission filter.

[3] = target: T4, human muscarinic receptor M4 (Homo sapiens, UniProt P08173); experiment: Muscarinic M4 receptor binding, [3H]4-DAMP; conditions: read-out: Affinity for Muscarinic Receptors, M4, Ki
T4 construct: expressed in transfected cells; host or cells: CHO cells (membranes)
T4 sequence (P08173 1-479): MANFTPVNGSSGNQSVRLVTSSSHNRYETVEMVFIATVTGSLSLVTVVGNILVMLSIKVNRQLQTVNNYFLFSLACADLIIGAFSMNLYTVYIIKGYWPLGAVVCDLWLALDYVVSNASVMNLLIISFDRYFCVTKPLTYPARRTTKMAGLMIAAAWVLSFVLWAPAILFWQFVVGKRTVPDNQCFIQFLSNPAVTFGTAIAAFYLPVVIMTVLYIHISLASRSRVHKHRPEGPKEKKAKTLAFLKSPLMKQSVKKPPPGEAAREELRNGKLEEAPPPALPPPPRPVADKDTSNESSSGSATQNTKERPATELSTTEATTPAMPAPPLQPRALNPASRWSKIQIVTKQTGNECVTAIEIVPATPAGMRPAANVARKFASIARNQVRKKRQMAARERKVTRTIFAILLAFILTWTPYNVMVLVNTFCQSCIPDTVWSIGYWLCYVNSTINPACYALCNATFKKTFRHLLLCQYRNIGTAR
Procedure: as §1

[4] = system: rotarod performance in rats; experiment: Rat rotarod assay of sedation; format: in vivo; conditions: for peak deficit in rotarod performance: 30 mg/kg, i.p., peak at 30 minutes; for ED50 for impairment of rotarod performance: IP
Procedure: Protocol. The rat rotarod assay is commonly used to assess sedation associated with chemical drugs. […] Once the rats were in position, the timers were set to zero and the rotarod switched to accelerating mode. The rotarod accelerated from 4 to 40 rpm over a five-minute interval. The timers automatically turned off when the rats fell from the rotating drum, recording a latency to fall in seconds. […] The performance score was recorded in seconds for each interval. The baseline rotarod performance score was the latency to fall off the rotarod on the third training session. Baselines must have been greater than or equal to 60 seconds duration for the rat to be included in the experiment.

## CNCC/C=C1\c2ccccc2C[C@H](O)c2ccccc21 (stereo in doubt) [(+)-E-10-OH-NT]
[1]
  Ki: 4200 nM
[2]
  Ki: 280 nM
CYP2C19
  inhibition at 10 µM: 20%
[3]
  Ki: 390 nM

## CNCC/C=C1\c2ccccc2C[C@@H](O)c2ccccc21 (stereo in doubt) [(−)-E-10-OH-NT]
[4]; 30 mg/kg IP, rats (Example 17)
  impairment of rotarod performance: 5%
[4]; rats
  peak deficit in rotarod performance: no impairment in rotarod performance; also recorded: no significant impairment in performance; also recorded: no impairment of performance
  ED50 for impairment of rotarod performance: 120 mg/kg IP
[1]
  Ki: 2600 nM
[2]
  Ki: 150 nM
CYP2C19
  inhibition at 10 µM: 24%
[3]
  Ki: 170 nM

## CN(C)CCC=C1c2ccccc2CCc2ccccc21 [AT, amitriptyline, reference compound]
[4]; rats
  peak deficit in rotarod performance: 51±20%
  ED50 for impairment of rotarod performance: 27 mg/kg IP
[4]; 100 mg/kg IP, rats
  maximal impairment of rotarod performance: 96%
[2]
  Ki: 3.5 nM
CYP2C19
  IC50: 3500 nM
[3]
  Ki: 3.6 nM

## CNCCC=C1c2ccccc2CCc2ccccc21 [NT, nortriptyline, reference compound]
[4]; rats
  peak deficit in rotarod performance: 60±14% and 60±40%
[1]
  Ki: 220 nM
[2]
  Ki: 15 nM
CYP2C19
  IC50: 1500 nM
